Test results reported in patent publication US20260083708A1, “IL-17 MODULATORS AND USES THEREOF” (NNOCARE PHARMA INC., priority 2024, published 2026).

Legend:
[1] = biological target: T1, IL-17AA and IL-17RA (Homo sapiens, UniProt Q16552); experiment: Competitive inhibition of human IL-17AA and IL-17RA binding (HTRF); details: recombinant IL-17AA (His-tag) and IL-17RA (hFc-tag); read-out: IC50 for Inhibiting IL-AA/IL-RA Binding
T1 construct: purchased Sino Biological 12047-H07B (IL-17AA); 10895-H02H (IL-17RA)
T1 sequence (Q16552 24-155): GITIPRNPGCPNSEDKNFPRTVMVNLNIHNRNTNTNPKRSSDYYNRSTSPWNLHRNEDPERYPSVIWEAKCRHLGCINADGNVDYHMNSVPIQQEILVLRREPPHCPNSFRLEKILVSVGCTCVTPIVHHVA
Description: Example 42. Competitive Inhibition of Human IL-17AA and IL-17RA Binding
Recombinant IL-17AA (His-tag, Catalog Number 12047-H07B) and IL-17RA (hFc-tag, Catalog Number 10895-H02H) were purchased from Sino Biological. In the experiment, 10 μL of IL-17AA (1 nM) or IL-17RA (1 nM) was added to 10 μL of anti-6His-Tb (0.4 nM, Revvity, Catalog Number 61HISTLF) or anti-human IgG-d2 (1 μg/mL, anti-human IgG-d2, Revvity, Catalog Number 61HFCDAF), respectively and incubated at room temperature for 1 hour. Compounds were serially diluted starting from 10 μM. 5 μL of each compound solution was incubated with 5 μL of a mixture of IL-17AA and anti-6His-Tb at room temperature for 2 hours. After pre-incubation, to which was added 10 μL of a mixture of IL-17RA and anti-human IgG-d2, and incubation was continued for additional 20 minutes. Subsequently, a microplate reader (Envision, PerkinElmer) was used to detect fluorescence intensity at 615 nm and 665 nm, and the ratio of intensity thereof indicates the degree of IL-17AA and IL-17RA interaction. The ratio of intensity in the absence of tested compound was the highest value of binding between IL-17AA and IL-17RA, and the ratio of intensity in the absence of IL-17AA was the lowest value.
(§1) Therefore, the percentage of inhibition of tested compound was calculated as
Experimental results were analyzed using XLfit (IDBS) for 4-parameter nonlinear fitting analysis, to provide the IC50 value for each tested compound (Table 1).

[2] = tested on: IL-17AA-induced IL-17 signaling pathway; experiment: Inhibition of IL-17AA-induced IL-17 signaling pathway in HEK-Blue IL-17 reporter cells (SEAP); format: cell-based; details: Homo sapiens; HEK-Blue IL-17 cells, IL-17AA 2.5 ng/mL, 20 hours; read-out: IC50 for Inhibiting IL-AA Signaling
Text: Example 43. Inhibition of IL-17AA-Induced IL-17 Signaling Pathway
(§2) Interleukin-17 (IL-17) reporter cell line (HEK-Blue IL-17, InvivoGen, Catalog Number hkb-i117) is created by genetically engineering human IL-17RA/IL-17RC heterodimeric receptor and downstream adapter protein ACT1 into human embryonic kidney 293 cells (HEK293). These cells also express secreted embryonic alkaline phosphatase (SEAP) reporter gene induced by NF-κB and AP-1. Therefore, IL-17AA can activate NF-κB and AP-1 signaling pathways inside the cells by binding to IL-17RA/RC on cell membrane, leading to expression of SEAP protein. After a colorimetric reaction between SEAP protein and Quanti-Blue solution, the absorbance at 620 nm is measured using a microplate reader (BioTek H1M, Agilent, Catalog Number SH1M-SN) to determine IL-17AA-activated signaling pathway.
(§3) In the experiment, HEK-Blue IL-17 cells were cultured at 37° C. under 5% CO2 conditions using the recommended medium from InvivoGen's instruction. Compounds were serially diluted starting from 10 μM. 4 μL of each compound solution was added to 32 μL of cells (10,000 cells) at 37° C. for 1 hour. After pre-incubation, 4 μL of IL-17AA with a final concentration of 2.5 ng/mL (Sino Biological, Catalog Number 12047-HNAS) was added to the cells, and incubation was continued for additional 20 hours. After incubation, 5 μL of cell culture supernatant was added to 45 μL of Quanti-Blue for the colorimetric reaction. The group without tested compound had the highest absorbance at 620 nm, and the group without IL-17AA had the lowest absorbance at 620 nm.
as §1
(§4) Experimental results were analyzed using XLfit (IDBS) for 4-parameter nonlinear fitting analysis to provide the IC50 value for each tested compound (Table 1).

[3] = tested on: IL-17AF-induced IL-17 signaling pathway; experiment: Inhibition of IL-17AF-induced IL-17 signaling pathway; format: cell-based; details: Homo sapiens; IL-17AF used instead of IL-17AA; read-out: IC50 for Inhibiting IL-AF Signaling
Text: as §2, §3, §1, §4
Example 44. Inhibition of IL-17AF-Induced IL-17 Signaling Pathway
The same experimental procedure to Example […] was followed where IL-17AF was used instead of IL-17AA.

SMILES	IC50 [1] [nM]	IC50 [2] [nM]	IC50 [3] [nM]
CCc1nonc1C(=O)N[C@H](C(=O)Nc1ccc([C@H](C)[C@@H](NC(=O)COC)c2nnnn2CC2CC2)cc1F)C(C1CC1)C1CC1 [Compound 29, N-((S)-1,1-dicyclopropyl-3-((4-((1R,2S)-1-(1-(cyclopropylmethyl)-1H-tetrazol-5-yl)-1-(2-methoxyacetamido)propan-2-yl)-2-fluorophenyl)amino)-3-oxopropan-2-yl)-4-ethyl-1,2,5-oxadiazole-3-carboxamide]	0.9	2	3.2
CCCn1cnc([C@H](NC(=O)COC)[C@@H](C)c2ccc(NC(=O)[C@@H](NC(=O)c3ccnn3CC)C(C3CC3)C3CC3)c(F)c2)n1 [Compound 30, N-((S)-1,1-dicyclopropyl-3-((2-fluoro-4-((1R,2S)-1-(2-methoxyacetamido)-1-(1-propyl-1H-1,2,4-triazol-3-yl)propan-2-yl)phenyl)amino)-3-oxopropan-2-yl)-1-ethyl-1H-pyrazole-5-carboxamide]	23	32	66
CCCn1ncnc1[C@H](NC(=O)COC)[C@@H](C)c1ccc(NC(=O)[C@@H](NC(=O)c2ccnn2CC)C(C2CC2)C2CC2)c(F)c1 [Compound 31, N-((S)-1,1-dicyclopropyl-3-((2-fluoro-4-((1R,2S)-1-(2-methoxyacetamido)-1-(1-propyl-1H-1,2,4-triazol-5-yl)propan-2-yl)phenyl)amino)-3-oxopropan-2-yl)-1-ethyl-1H-pyrazole-5-carboxamide]	11	6.9	13
COCC(=O)N[C@@H](c1nncn1CC1CC1)[C@@H](C)c1ccc(NC(=O)[C@@H](NC(=O)OCc2cc(C(F)F)on2)C(C2CC2)C2CC2)c(F)c1 [Compound 32, (5-(Difluoromethyl)isoxazol-3-yl)methyl ((S)-1,1-dicyclopropyl-3-((4-((1R,2S)-1-(4-(cyclopropylmethyl)-4H-1,2,4-triazol-3-yl)-1-(2-methoxyacetamido)propan-2-yl)-2-fluorophenyl)amino)-3-oxopropan-2-yl)carbamate]	2.8	5.7	8.6
COCC(=O)N[C@@H](c1ncnn1CC1CC1)[C@@H](C)c1ccc(NC(=O)[C@@H](NC(=O)c2ccnn2C(C)C)C(C2CC2)C2CC2)c(F)c1 [Compound 33, N-((S)-1,1-dicyclopropyl-3-((4-((1R,2S)-1-(1-(cyclopropylmethyl)-1H-1,2,4-triazol-5-yl)-1-(2-methoxyacetamido)propan-2-yl)-2-fluorophenyl)amino)-3-oxopropan-2-yl)-1-isopropyl-1H-pyrazole-5-carboxamide]	7.9	3.1	7.7
CCc1nonc1C(=O)N[C@H](C(=O)Nc1ccc([C@H](C)[C@@H](NC(=O)COC)c2ncnn2CC2CC2)cc1F)C(C1CC1)C1CC1 [Compound 34, N-((S)-1,1-dicyclopropyl-3-((4-((1R,2S)-1-(1-(cyclopropylmethyl)-1H-1,2,4-triazol-5-yl)-1-(2-methoxyacetamido)propan-2-yl)-2-fluorophenyl)amino)-3-oxopropan-2-yl)-4-ethyl-1,2,5-oxadiazole-3-carboxamide]	2.6	2.2	3.2
CCn1nccc1C(=O)N[C@H](C(=O)Nc1ccc([C@H](C)[C@@H](NC(=O)COC)c2ncnn2CC(C)C)cc1F)C(C1CC1)C1CC1 [Compound 36, N-((S)-1,1-dicyclopropyl-3-((2-fluoro-4-((1R,2S)-1-(1-isobutyl-1H-1,2,4-triazol-5-yl)-1-(2-methoxyacetamido)propan-2-yl)phenyl)amino)-3-oxopropan-2-yl)-1-ethyl-1H-pyrazole-5-carboxamide]	3.7	2	2.2
CCn1nccc1C(=O)N[C@H](C(=O)Nc1ccc([C@H](C)[C@H](NC(=O)COC)c2nncn2CC2CC2)cc1F)C(C1CC1)C1CC1 [Compound 37, N-((S)-1,1-dicyclopropyl-3-((4-((1S,2S)-1-(4-(cyclopropylmethyl)-4H-1,2,4-triazol-3-yl)-1-(2-methoxyacetamido)propan-2-yl)-2-fluorophenyl)amino)-3-oxopropan-2-yl)-1-ethyl-1H-pyrazole-5-carboxamide]	125	74	232
CCn1nccc1C(=O)N[C@H](C(=O)Nc1ccc([C@H](C)[C@@H](NC(=O)COC)c2nccn2CC2CC2)cc1F)C(C1CC1)C1CC1 [Compound 38, N-((S)-1,1-dicyclopropyl-3-((4-((1R,2S)-1-(1-(cyclopropylmethyl)-1H-imidazol-2-yl)-1-(2-methoxyacetamido)propan-2-yl)-2-fluorophenyl)amino)-3-oxopropan-2-yl)-1-ethyl-1H-pyrazole-5-carboxamide]	7.5	2.9	7
CCn1nccc1C(=O)N[C@H](C(=O)Nc1ccc([C@H](C)[C@@H](NC(=O)COC)c2ncnn2CCOC)cc1F)C(C1CC1)C1CC1 [Compound 40]	7.4	2.6	8.6
CCn1nccc1C(=O)N[C@H](C(=O)Nc1ccc([C@H](C)[C@@H](NC(=O)COC)c2ncnn2CC2CC2)cc1F)C1CCC(C)CC1 (stereo partly drawn) [Compound 41, N-((S)-2-((4-((1R,2S)-1-(1-(cyclopropylmethyl)-1H-1,2,4-triazol-5-yl)-1-(2-methoxyacetamido)propan-2-yl)-2-fluorophenyl)amino)-1-((1R,4S)-4-methylcyclohexyl)-2-oxoethyl)-1-ethyl-1H-pyrazole-5-carboxamide]	4.9	11	16
CCn1nccc1C(=O)N[C@H](C(=O)Nc1ccc([C@H](C)[C@@H](NC(=O)COC)c2ncnn2CC2CC2)cc1F)C1CCCCCC1 [Compound 42, N-((S)-1-cycloheptyl-2-((4-((1R,2S)-1-(1-(cyclopropylmethyl)-1H-1,2,4-triazol-5-yl)-1-(2-methoxyacetamido)propan-2-yl)-2-fluorophenyl)amino)-2-oxoethyl)-1-ethyl-1H-pyrazole-5-carboxamide]	4.9	5.1	11
[2H]C([2H])([2H])n1nccc1C(=O)N[C@H](C(=O)Nc1ccc([C@H](C)[C@@H](NC(=O)CC)c2ncn(CC3CC3)n2)cc1F)C(C1CC1)C1CC1 [Compound 43, N-((S)-1,1-dicyclopropyl-3-((4-((1R,2S)-1-(1-(cyclopropylmethyl)-1H-1,2,4-triazol-3-yl)-1-propionamidopropan-2-yl)-2-fluorophenyl)amino)-3-oxopropan-2-yl)-1-(methyl-d3)-1H-pyrazole-5-carboxamide]	9.4	16	27
CCC(=O)N[C@@H](c1ncnn1CC1CC1)[C@@H](C)c1ccc(NC(=O)[C@@H](NC(=O)c2ccnn2C(C)C)C(C2CC2)C2CC2)c(F)c1 [Compound 44, N-((S)-1,1-dicyclopropyl-3-((4-((1R,2S)-1-(1-(cyclopropylmethyl)-1H-1,2,4-triazol-5-yl)-1-propionamidopropan-2-yl)-2-fluorophenyl)amino)-3-oxopropan-2-yl)-1-isopropyl-1H-pyrazole-5-carboxamide]	1.9	4.4	29
